pIC50: −log10 of the molar value. Where a SMILES comes first, the peptide text is derived from it. Bridges are numbered along the chain shown (N, C = ends). [ ]: non-standard residue; d: D form. The star is where a group is joined. hPhe(3,5-F2-4-CF3) = N[C@@H](CCc1cc(F)c(C(F)(F)F)c(F)c1)C(=O)O; hPhe(3-Cl-4-CF3) = N[C@@H](CCc1ccc(C(F)(F)F)c(Cl)c1)C(=O)O; NPrPhe(4-CF3) = CCCN[C@@H](Cc1ccc(C(F)(F)F)cc1)C(=O)O; NMePhe(4-Me) = CN[C@@H](Cc1ccc(C)cc1)C(=O)O; NMeGly(cPent) = CN[C@H](C(=O)O)C1CCCC1; Ac4c(3,3-F2) = NC1(C(=O)O)CC(F)(F)C1; NMeD = CN[C@@H](CC(=O)O)C(=O)O; NMeL = CN[C@@H](CC(C)C)C(=O)O; NMeS = CN[C@@H](CO)C(=O)O; αMeS = C[C@](N)(CO)C(=O)O; Morpholide = C1CN(*)CCO1; Ac5c = NC1(C(=O)O)CCCC1; Aze = O=C(O)[C@@H]1CCN1; Sar = CNCC(=O)O
Legend:
[1] = molecular target: GDP-bound NRAS wild-type protein (Homo sapiens, UniProt P01111); test: Binding to NRAS by surface plasmon resonance (SPR), KD and KD ratio to KRAS
Sequence of GDP-bound NRAS wild-type protein (P01111 whole entry): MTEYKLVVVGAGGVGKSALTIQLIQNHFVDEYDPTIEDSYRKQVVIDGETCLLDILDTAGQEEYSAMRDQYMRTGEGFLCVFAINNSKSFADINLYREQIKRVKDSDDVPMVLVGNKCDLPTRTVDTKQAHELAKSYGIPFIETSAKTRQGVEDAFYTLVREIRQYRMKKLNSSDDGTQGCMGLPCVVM
Outline: (§1)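 Affinity is measured by surface plasmon resonance at 30°C against captured, GDP-loaded RAS carrying a biotinylated Avi tag. Compounds are titrated by single-cycle kinetics, and KD comes from a 1:1 fit.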

[2] = molecular target: HRAS wild-type protein (Homo sapiens, UniProt P01112); test: Binding to HRAS by surface plasmon resonance (SPR), KD and KD ratio to KRAS
Sequence of HRAS wild-type protein (P01112 whole entry): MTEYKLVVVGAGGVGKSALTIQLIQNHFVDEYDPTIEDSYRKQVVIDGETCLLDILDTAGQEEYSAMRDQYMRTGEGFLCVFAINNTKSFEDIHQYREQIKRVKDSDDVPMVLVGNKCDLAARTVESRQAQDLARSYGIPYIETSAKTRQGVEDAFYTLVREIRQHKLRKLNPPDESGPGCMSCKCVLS
Outline: as §1

[3] = test system: human lung cancer strain NCI-H441; assay type: cell-based
Outline: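 Readout: […] after the ATP-based reagent. Compound: serial dilutions in dimethyl sulfoxide.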

[4] = ratio of the KD value with respect to GDP-bound NRAS wild-type protein to the KD value with respect to KRAS
[5] = ratio of the KD value with respect to HRAS wild-type protein to the KD value with respect to KRAS
[6] = ratio of KD for GDP-bound NRAS wild-type protein to KD for KRAS
[7] = ratio of KD for HRAS wild-type protein to KD for KRAS
[8] = ratio of KD value for GDP-bound NRAS wild-type protein to KD value for KRAS (SPR)
[9] = ratio of KD value for HRAS wild-type protein to KD value for KRAS (SPR)

CCCN1C(=O)CN(C)C(=O)CN(C)C(=O)[C@H]([C@@H](C)CC)NC(=O)[C@H](CC(C)C)N(C)C(=O)C[C@@H](C(=O)N(C)C)N(C)C(=O)[C@H](C2CCCC2)N(C)C(=O)[C@](C)(COC)NC(=O)[C@@H]2CCCN2C(=O)[C@H](CCc2cc(F)c(C(F)(F)F)c(F)c2)NC(=O)CN(C)C(=O)[C@@H]1Cc1ccc(C(F)(F)F)cc1 [PP0741] ([NMeL]I[Sar][Sar][NPrPhe(4-CF3)][Sar][hPhe(3,5-F2-4-CF3)]P[αMeS](Me)[NMeGly(cPent)][NMeD]-NMe2; lactam N-11)
NRAS /KRAS [1, 4]: B (a compound having 3 or more and less than 10 is denoted as B)
HRAS /KRAS [2, 5]: B (a compound having 3 or more and less than 10 is denoted as B)
pIC50 [3]: 7.29

CCCN1C(=O)CN(C)C(=O)CN(C)C(=O)[C@H]([C@@H](C)CC)NC(=O)[C@@H]2CCCCCCOc3ccc(cc3)C[C@H]1C(=O)N(C)CC(=O)N[C@@H](CCc1cc(F)c(C(F)(F)F)c(F)c1)C(=O)N1C[C@H](OCC)C[C@H]1C(=O)NC1(CCCC1)C(=O)N(C)[C@@H](C1CCCC1)C(=O)N(C)[C@H](C(=O)N(C)C)CC(=O)N2C [PP0896]
NRAS /KRAS [1, 6]: C (A compound having a KD ratio of 0.1 or more and less than 3 is denoted as C)
HRAS /KRAS [2, 7]: C (A compound having a KD ratio of 0.1 or more and less than 3 is denoted as C)
pIC50 [3]: 8.51

CCC[C@H]1C(=O)N[C@@H]([C@@H](C)CC)C(=O)N(CCC)CC(=O)N(C)[C@H]2C/C=C\CCN(C2=O)[C@@H](Cc2ccc(C(F)(F)F)cc2)C(=O)N(C)CC(=O)N[C@@H](CCc2cc(F)c(C(F)(F)F)c(F)c2)C(=O)N2C[C@H](OCC)C[C@H]2C(=O)NC2(CCC2)C(=O)N(C)[C@@H](C2CCCC2)C(=O)N(C)[C@H](C(=O)N(C)C)CC(=O)N1C [PP1767]
NRAS /KRAS [1, 8]: A (a compound having 10 or more and less than 20 is denoted as A)
HRAS /KRAS [2, 9]: B (a compound having 3 or more and less than 10 is denoted as B)
pIC50 [3]: 7.75

CC[C@H](C)[C@@H]1NC(=O)[C@H](CC(C)C)N(C)C(=O)C[C@@H](C(=O)N2CCOCC2)N(C)C(=O)[C@H](C2CCCC2)N(C)C(=O)C2(CCCC2)NC(=O)[C@@H]2CCCN2C(=O)[C@H](CCc2ccc(C(F)(F)F)c(Cl)c2)NC(=O)CN(C)C(=O)[C@H](Cc2ccc(C)cc2)N(C)C(=O)[C@H](CO)N(C)C(=O)CN(C)C1=O [PP0037] ([NMeL]I[Sar][NMeS][NMePhe(4-Me)][Sar][hPhe(3-Cl-4-CF3)]P[Ac5c][NMeGly(cPent)][NMeD]-Morpholide; lactam N-11)
NRAS /KRAS [1, 6]: C (A compound having a KD ratio of 0.1 or more and less than 3 is denoted as C)
HRAS /KRAS [2, 7]: C (A compound having a KD ratio of 0.1 or more and less than 3 is denoted as C)
pIC50 [3]: 6.37

C=CCN1CC(=O)N(C)[C@H]2C/C=C\CCN(C2=O)[C@@H](Cc2ccc(C)cc2)C(=O)N(C)CC(=O)N[C@@H](CCc2cc(F)c(C(F)(F)F)c(F)c2)C(=O)N2C[C@H](OCC)C[C@H]2C(=O)NC2(CC(C)(C)C2)C(=O)N(C)[C@@H](C2CCCC2)C(=O)N(C)[C@H](C(=O)N(C)C)CC(=O)N(C)[C@@H](CCC)C(=O)N[C@@H]([C@@H](C)CC)C1=O [PP2094]
NRAS /KRAS [1, 4]: A (a compound having 10 or more and less than 20 is denoted as A)
HRAS /KRAS [2, 5]: A (a compound having 10 or more and less than 20 is denoted as A)
pIC50 [3]: 8.27

CCO[C@@H]1C[C@H]2C(=O)NC3(CC(C)(C)C3)C(=O)N(C)[C@@H](C3CCCC3)C(=O)N(C)[C@H](C(=O)N(C)CC)CC(=O)N(C)[C@H]3CCC/C=C/c4ccc(cc4)C[C@@H](C(=O)N(C)CC(=O)N[C@@H](CCc4cc(F)c(C(F)(F)F)c(F)c4)C(=O)N2C1)N1CC/C=C\C[C@@H](C1=O)N(C)C(=O)CN(C)C(=O)[C@H]([C@@H](C)CC)NC3=O [PP1835]
NRAS /KRAS [1, 8]: A (a compound having 10 or more and less than 20 is denoted as A)
HRAS /KRAS [2, 9]: B (a compound having 3 or more and less than 10 is denoted as B)
pIC50 [3]: 8.31

CCCN1C(=O)CN(C)C(=O)[C@@H]2CCN2C(=O)[C@H]([C@@H](C)CC)NC(=O)[C@H](CC(C)C)N(C)C(=O)C[C@@H](C(=O)N2CCOCC2)N(C)C(=O)[C@H](C2CCCC2)N(C)C(=O)C2(CC(F)(F)C2)NC(=O)[C@@H]2CCCN2C(=O)[C@H](CCc2cc(F)c(C(F)(F)F)c(F)c2)NC(=O)CN(C)C(=O)[C@@H]1Cc1ccc(C(F)(F)F)cc1 [PP0783] ([NMeL]I[Aze][Sar][NPrPhe(4-CF3)][Sar][hPhe(3,5-F2-4-CF3)]P[Ac4c(3,3-F2)][NMeGly(cPent)][NMeD]-Morpholide; lactam N-11)
NRAS /KRAS [1, 6]: B (a compound having 3 or more and less than 10 is denoted as B)
HRAS /KRAS [2, 7]: B (a compound having 3 or more and less than 10 is denoted as B)
pIC50 [3]: 6.91
